Results reported in patent US20050239656A1, “Pyridine compounds or salts thereof and herbicides containing the same” (priority 2002, published 2005).

How the values were obtained:
soybean [1] = assay: Test Example 1: foliage treatment, upland pot test; type: in vivo, Glycine max Merr.; details: crop, observed 18th to 23rd day, 0 = non-treated, 100 = complete kill
Summary of the method: (§1)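 Each plant species was sprayed once on its foliage, with wheat at 1.3–2.4, soybean at 0.1–0.4, barnyardgrass at 1.3–2.8 and rice at 1.2–2.6 leaves. Visual ratings of growth inhibition, 0 to 100%, followed 18–23 days later.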

prickly sida [2] = assay: Test Example 1: foliage treatment, upland pot test; type: in vivo, Sida spinosa L.; details: observed 18th to 23rd day, 0 = non-treated, 100 = complete kill
redroot pigweed [3] = assay: Test Example 2: soil surface treatment, upland pot test; type: in vivo, Amaranthus retroflexus L.; details: observed 20th to 28th day
Summary of the method: (§2)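 Soil surface treated 1 day post-sowing. Formulation: WP or EC, predetermined a.i., diluted to 1,500 L/ha. Pot size 1/170,000 ha, upland soil. Readout: visual % control, 0 = non-treated, 100 = dead, days 20–28.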

green foxtail [4] = assay: as above; type: in vivo, Setaria viridis L.; details: observed 20th to 28th day
Summary of the method: as §2

japanese ribbon wapato = assay: Test Example 3: paddy pot test, application under submerged conditions; type: in vivo, Sagittaria pygniaea; details: submerged application at primary leaf stage, visually observed 14 days after application, 0 = non-treated, 100 = complete kill
Summary of the method: (§3)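 Seeds were sown in flooded paddy soil (0.5–1 cm water), wapato tubers were planted 1–2 days later, and water was then held at 3–4 cm. Diluted wettable powder or emulsifiable concentrate was pipetted into the water at the 0.5 leaf or primary leaf stage. Growth control was visually scored at 14 days (0–100%).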

corn [5] = assay: Test Example 1: foliage treatment, upland pot test; type: in vivo, Zea mays L.; details: crop, observed 18th to 23rd day, 0 = non-treated, 100 = complete kill
Summary of the method: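 Corn seeds were sown in upland field soil held in a 1/170,000 ha pot and grown to the 2.1 to 3.2 leaf stage. A wettable powder or emulsifiable concentrate of the test compound was diluted with water at 500 L/ha, given 0.1% (v/v) agricultural spreader, and sprayed onto the foliage with a small sprayer. Growth controlling degree (%) was scored visually 18th to 23rd days later, from 0 (non-treated) to 100 (complete kill).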

crabgrass [6] = assay: Test Example 1: foliage treatment, upland pot test; type: in vivo, Digitaria sanguinalis L.; details: observed 18th to 23rd day, 0 = non-treated, 100 = complete kill
From the text: Upland field soil was put into a 1/170,000 ha pot, and seed of various plants were sown. Then, when the plants reached predetermined leaf stages ((1) barnyardgrass: 1.3 to 2.8 leaf stages, (2) crabgrass: 1.0 to 2.8 leaf stages, (3) green foxtail: 1.3 to 2.6 leaf stages, (4) redroot pigweed: 0.1 to 1.2 leaf stages, (5) prickly sida: 0.1 to 1.2 leaf stages, (6) velvetleaf: 0.1 to 1.2 leaf stages, (7) tall morningglory: 0.1 to 1.5 leaf stages, (8) rice: 1.2 to 2.6 leaf stages, (9) wheat: 1.3 to 2.4 leaf stages, (10) corn, 2.1 to 3.2 leaf stages, (11) soybean: 0.1 to 0.4 leaf stage), a wettable powder or emulsifiable concentrate having the compound of the present invention formulated in accordance with a usual formulation method, was weighed so that the active ingredient would be a predetermined amount, and diluted with water in an amount of 500 L/ha. To the diluted solution, 0.1% (v/v) of agricultural spreader was added. The herbicide thus adjusted was applied by a small size sprayer for foliage treatment. On the 18th to 23rd days after the application of the herbicide, the growth of the respective plants was visually observed, and the herbicidal effects were evaluated by the growth controlling degrees (%) ranging from 0 (equivalent to the non-treated plot) to 100 (complete kill), whereby the results shown in Table 3, were obtained.

redroot pigweed [7] = assay: Test Example 1: foliage treatment, upland pot test; type: in vivo, Amaranthus retroflexus L.; details: observed 18th to 23rd day, 0 = non-treated, 100 = complete kill
crabgrass [8] = assay: Test Example 2: soil surface treatment, upland pot test; type: in vivo, Digitaria sanguinalis L.; details: observed 20th to 28th day
Summary of the method: as §2

prickly sida [9] = assay: as above; type: in vivo, Sida spinosa L.; details: observed 20th to 28th day
Summary of the method: as §2

velvetleaf [10] = assay: as above; type: in vivo, Abutilon theophrasti MEDIC.; details: observed 20th to 28th day
Summary of the method: as §2

japanese bulrush = assay: Test Example 3: paddy pot test, application under submerged conditions; type: in vivo, Scirpus juncoides; details: submerged application at 0.5 leaf stage, visually observed 14 days after application, 0 = non-treated, 100 = complete kill
Summary of the method: as §3

corn [11] = assay: Test Example 2: soil surface treatment, upland pot test; type: in vivo, Zea mays L.; details: observed 20th to 28th day
Summary of the method: as §2

green foxtail [12] = assay: Test Example 1: foliage treatment, upland pot test; type: in vivo, Setaria viridis L.; details: observed 18th to 23rd day, 0 = non-treated, 100 = complete kill
rice [13] = assay: Test Example 2: soil surface treatment, upland pot test; type: in vivo, Oryza sativa L.; details: observed 20th to 28th day
Summary of the method: as §2

rice [14] = assay: Test Example 1: foliage treatment, upland pot test; type: in vivo, Oryza sativa L.; details: crop, observed 18th to 23rd day, 0 = non-treated, 100 = complete kill
Summary of the method: as §1

soybean [15] = assay: Test Example 2: soil surface treatment, upland pot test; type: in vivo, Glycine max Merr.; details: observed 20th to 28th day
Summary of the method: as §2

rice (var. Nihonbare) = assay: Test Example 3: paddy pot test, transplanted rice; type: in vivo, Oryza sativa L.; details: applied 4th day after transplantation, visually observed 21st day after application, 0 = non-treated, 100 = complete kill
Summary of the method: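 Rice (2-leaf stage) was transplanted 3 cm deep into puddled, leveled paddy soil under 3–4 cm flooding. On day 4 after transplanting, diluted wettable powder or emulsifiable concentrate was pipetted onto the water at a predetermined active-ingredient dose. Growth control (0 = untreated, 100 = complete kill) was scored visually 21 days later.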

barnyardgrass [16] = assay: Test Example 2: soil surface treatment, upland pot test; type: in vivo, Echinochloa crus-galli L.; details: observed 20th to 28th day
Summary of the method: as §2

velvetleaf [17] = assay: Test Example 1: foliage treatment, upland pot test; type: in vivo, Abutilon theophrasti MEDIC.; details: observed 18th to 23rd day, 0 = non-treated, 100 = complete kill
barnyardgrass [18] = assay: Test Example 1: foliage treatment, upland pot test; type: in vivo, Echinochloa crus-galli L.; details: observed 18th to 23rd day, 0 = non-treated, 100 = complete kill
Summary of the method: as §1

barnyardgrass [19] = assay: Test Example 3: paddy pot test, application under submerged conditions; type: in vivo, Echinochloa crus-galli L.; details: active ingredient 250 g/ha; submerged application at 0.5 leaf stage; visually observed 14 days after application; 0 = non-treated, 100 = complete kill
Summary of the method: as §3

Structure (SMILES)	Growth controlling degree (%) Soybean (soybean [1]; active ingredient 1000 g/ha)	Growth controlling degree (%) Prickly sida (prickly sida [2]; active ingredient 1000 g/ha)	Growth controlling degree (%) Redroot pigweed (redroot pigweed [3]; active ingredient 500 g/ha)	Growth controlling degree (%) Green foxtail (green foxtail [4]; active ingredient 500 g/ha)	Growth controlling degree (%) Japanese ribbon wapato (japanese ribbon wapato; active ingredient 500 g/ha)	Growth controlling degree (%) Corn (corn [5]; active ingredient 1000 g/ha)	Growth controlling degree (%) Crabgrass (crabgrass [6]; active ingredient 1000 g/ha)	Growth controlling degree (%) Redroot pigweed (redroot pigweed [7]; active ingredient 1000 g/ha)	Growth controlling degree (%) Crabgrass (crabgrass [8]; active ingredient 500 g/ha)	Growth controlling degree (%) Prickly sida (prickly sida [9]; active ingredient 500 g/ha)	Growth controlling degree (%) Velvetleaf (velvetleaf [10]; active ingredient 500 g/ha)	Growth controlling degree (%) Japanese bulrush (japanese bulrush; active ingredient 500 g/ha)	Growth controlling degree (%) Corn (corn [11]; active ingredient 500 g/ha)	Growth controlling degree (%) Green foxtail (green foxtail [12]; active ingredient 1000 g/ha)	Growth controlling degree (%) Rice (rice [13]; active ingredient 500 g/ha)	Growth controlling degree (%) Rice (rice [14]; active ingredient 1000 g/ha)	Growth controlling degree (%) Soyabean (soybean [15]; active ingredient 500 g/ha)	Growth controlling degree (%) Rice (rice (var. Nihonbare); active ingredient 500 g/ha)	Growth controlling degree (%) Barnyardgrass (barnyardgrass [16]; active ingredient 500 g/ha)	Growth controlling degree (%) Velvetleaf (velvetleaf [17]; active ingredient 1000 g/ha)	other results
CC(C)C(c1cnccc1C(F)(F)F)N(C)C(=O)Cc1ccc(F)cc1F (stereo not shown) [I-18]	70%	90%	80%	100%	90%	80%	90%	90%	100%	80%	80%	90%	50%	70%	20%	50%	50%	10%	100%	90%	Growth controlling degree (%) Barnyardgrass (barnyardgrass [18]; active ingredient 1000 g/ha): 90%
CC(C)C(c1cnccc1C(F)(F)F)N(C)C(=O)Cc1cccc(F)c1F (stereo not shown) [I-19]	90%	80%	80%	100%	95%	50%	90%	80%	100%	98%	80%	95%	30%	70%	10%	20%	30%	35%	95%	80%	Growth controlling degree (%) Barnyardgrass (barnyardgrass [18]; active ingredient 1000 g/ha): 80%
CC(C)C(c1cnccc1C(F)(F)F)N(C)C(=O)Cc1ccc(F)cc1 (stereo not shown) [I-21]					100%							98%						40%			Growth controlling degree (%) Soybean (soybean [1]; active ingredient 500 g/ha): 70%; Growth controlling degree (%) Prickly sida (prickly sida [2]; active ingredient 500 g/ha): 90%; Growth controlling degree (%) Redroot pigweed (redroot pigweed [3]; active ingredient 250 g/ha): 90%; Growth controlling degree (%) Green foxtail (green foxtail [4]; active ingredient 250 g/ha): 90%; Growth controlling degree (%) Corn (corn [5]; active ingredient 500 g/ha): 30%; Growth controlling degree (%) Crabgrass (crabgrass [6]; active ingredient 500 g/ha): 95%; Growth controlling degree (%) Redroot pigweed (redroot pigweed [7]; active ingredient 500 g/ha): 90%; Growth controlling degree (%) Crabgrass (crabgrass [8]; active ingredient 250 g/ha): 98%; Growth controlling degree (%) Prickly sida (prickly sida [9]; active ingredient 250 g/ha): 80%; Growth controlling degree (%) Velvetleaf (velvetleaf [10]; active ingredient 250 g/ha): 70%; Growth controlling degree (%) Corn (corn [11]; active ingredient 250 g/ha): 50%; Growth controlling degree (%) Green foxtail (green foxtail [12]; active ingredient 500 g/ha): 70%; Growth controlling degree (%) Rice (rice [13]; active ingredient 250 g/ha): 40%; Growth controlling degree (%) Rice (rice [14]; active ingredient 500 g/ha): 20%; Growth controlling degree (%) Soyabean (soybean [15]; active ingredient 250 g/ha): 20%; Growth controlling degree (%) Barnyardgrass (barnyardgrass [16]; active ingredient 250 g/ha): 60%; Growth controlling degree (%) Velvetleaf (velvetleaf [17]; active ingredient 500 g/ha): 95%; Growth controlling degree (%) Barnyardgrass (barnyardgrass [18]; active ingredient 500 g/ha): 80%
CC(C)C(c1cnccc1C(F)(F)F)N(C)C(=O)Cc1cccc(C(F)(F)F)c1F (stereo not shown) [I-29]			70%	100%					99%	98%	70%		20%		30%		10%		100%		Growth controlling degree (%) Soybean (soybean [1]; active ingredient 500 g/ha): 50%; Growth controlling degree (%) Prickly sida (prickly sida [2]; active ingredient 500 g/ha): 80%; Growth controlling degree (%) Japanese ribbon wapato (japanese ribbon wapato; active ingredient 250 g/ha): 10%; Growth controlling degree (%) Corn (corn [5]; active ingredient 500 g/ha): 10%; Growth controlling degree (%) Crabgrass (crabgrass [6]; active ingredient 500 g/ha): 90%; Growth controlling degree (%) Redroot pigweed (redroot pigweed [7]; active ingredient 500 g/ha): 80%; Growth controlling degree (%) Japanese bulrush (japanese bulrush; active ingredient 250 g/ha): 70%; Growth controlling degree (%) Barnyardgrass (barnyardgrass [19]): 100%; Growth controlling degree (%) Green foxtail (green foxtail [12]; active ingredient 500 g/ha): 60%; Growth controlling degree (%) Rice (rice [14]; active ingredient 500 g/ha): 10%; Growth controlling degree (%) Rice (rice (var. Nihonbare); active ingredient 250 g/ha): 10%; Growth controlling degree (%) Velvetleaf (velvetleaf [17]; active ingredient 500 g/ha): 80%; Growth controlling degree (%) Barnyardgrass (barnyardgrass [18]; active ingredient 500 g/ha): 60%
